Structures are written as SMILES. Active and inactive are the calls of the source. The calls are words filed in the database; no cut-off is given here. Bounds are passed on as bounds.

Data set [1] concerns CWR22R. As to the kind of experiment: Antiproliferative activity against human 22Rv1 cells assessed as inhibition of cell growth incubated for 6 to 7 days by MTS assay. Type of data set: functional, cell-based. The settings on record: time 6-7 day.
In a further data set the test system is PC-3. As to the kind of experiment: Antiproliferative activity against human PC-3 cells assessed as inhibition of cell growth incubated for 6 to 7 days by MTS assay. Type of data set: functional, cell-based. The settings on record: time 6-7 day. In general terms: Tetrazolium dyes change colour on reduction, which living cells bring about.
The next data set has as its system SUD4. Kind of data set: Antiproliferative activity against human SU-DHL-4 cells assessed as inhibition of cell growth incubated for 6 to 7 days by MTS assay. The class given is functional, cell-based. The settings on record: time 6-7 day.
The target of data set [2] is T1, Amine oxidase [flavin-containing] A (Homo sapiens, UniProt P21397).
T1 sequence (P21397 whole entry): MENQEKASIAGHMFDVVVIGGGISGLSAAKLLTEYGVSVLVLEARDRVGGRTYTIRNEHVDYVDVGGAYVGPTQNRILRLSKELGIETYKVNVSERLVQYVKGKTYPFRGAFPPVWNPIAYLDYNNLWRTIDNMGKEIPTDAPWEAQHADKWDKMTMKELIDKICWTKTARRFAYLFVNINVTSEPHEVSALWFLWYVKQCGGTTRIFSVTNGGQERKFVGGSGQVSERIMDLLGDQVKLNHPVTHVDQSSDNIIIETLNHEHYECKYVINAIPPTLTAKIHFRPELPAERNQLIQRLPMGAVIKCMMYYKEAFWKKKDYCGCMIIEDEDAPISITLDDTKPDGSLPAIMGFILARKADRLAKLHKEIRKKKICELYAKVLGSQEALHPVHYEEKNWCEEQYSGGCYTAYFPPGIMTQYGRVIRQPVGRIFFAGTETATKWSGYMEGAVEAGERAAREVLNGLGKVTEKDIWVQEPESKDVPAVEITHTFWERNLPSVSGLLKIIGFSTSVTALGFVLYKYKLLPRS
As to the kind of experiment: Inhibition of MAO-A (unknown origin).

Data set [3] in a line: Metabolic stability in Sprague-Dawley rat hepatocyte assessed as compound remaining at 20 uM incubated for 60 mins by HPLC-MS/MS analysis. Particulars: hepatocytes, read-out: Stability. The class given is ADME, cell-based.
A short description of data set [4]: Toxicity in BALB/c mouse xenografted with human 22Rv1 cells assessed as lung morphological change at 80 mg/kg,ip administrated daily for 31 days. Type of data set: organism-based, CWR22R. Particulars: in vivo, 744 h, time 31 day. On the technique in general: Xenograft models place foreign cells or tissue in a host animal.
Data set [5] can be described thus: Clearance in BALB/c mouse at 50 mg/kg,ip measured upto 24 hrs by HPLC-MS/MS analysis. The class given is ADME, organism-based. The settings on record: in vivo.
Another data set deals with U-937. Kind of data set: Antiproliferative activity against human U-937 cells assessed as inhibition of cell growth incubated for 6 to 7 days by MTS assay. The class given is functional, cell-based. Particulars: time 6-7 day.
Data set [6] has as its target T2, Lysine-specific histone demethylase 1A (Homo sapiens, UniProt O60341). As to the kind of experiment: Inhibition of recombinant human LSD1 using Histone H3 as fluorometric substrate incubated for 30 mins by HRP based plate reader assay.
For data set [7], the target named is T2, Lysine-specific histone demethylase 1A. Kind of data set: Inhibition of LSD1 in human 22Rv1 cells assessed as upregulation of H3K9me2 expression at 1 to 5 uM incubated for 5 days by Western blotting analysis. The class given is cell-based. The settings on record: dose 1-5 µM, time 5.0 day. On the technique in general: Immunoblotting shows a protein as a band on a membrane.

Data set [8] relates to CWR22R. As to the kind of experiment: Induction of cell cycle arrest in human 22Rv1 cells assessed as accumulation of cells at G0/G1 phase incubated for 72 hrs by propidium iodide/RNase staining based flow cytometric analysis. The class given is functional.
A short description of data set [9]: Cmax in BALB/c mouse at 50 mg/kg,ip measured upto 24 hrs by HPLC-MS/MS analysis. Type of data set: ADME, organism-based. Particulars: in vivo.
Data set [10] concerns the target T2, Lysine-specific histone demethylase 1A. As to the kind of experiment: Binding affinity to recombinant human LSD1 assessed as increase in thermal stability at 5 uM at 38 to 58 degreeC incubated for 48 hrs by cellular thermal shift assay.
The subject of data set [11] is CWR22R. Kind of data set: Induction of apoptosis in human 22Rv1 cells at 5 uM incubated for 5 days by Annexin V-FITC/PI staining based flow cytometric analysis (reference value: 8.97 %). The class given is functional. Particulars: time 5 day.
Data set [12] has as its target T2, Lysine-specific histone demethylase 1A. As to the kind of experiment: Inhibition of LSD1 in human LNCaP cells assessed as downregulation of AR-V7 expression at 1 to 20 uM incubated for 48 hrs by Western blotting analysis. Type of data set: cell-based. The settings on record: dose 1-20 µM.
Data set [13] in a line: Tmax in BALB/c mouse at 50 mg/kg,ip measured upto 24 hrs by HPLC-MS/MS analysis. Particulars: in vivo. Type of data set: ADME, organism-based.
The test system of data set [14] is CWR22R. Particulars: Homo sapiens, dose 80.0 mg/kg, route ip, time 31.0 day.
Data set [15] is described as follows: Inhibition of LSD2 (unknown origin). More on the design: species or system Homo sapiens.

By IC50 is commonly meant the concentration that inhibits the measured activity by half. Usually CL/F stands for clearance divided by bioavailability, as obtained after extravascular dosing. For orientation: Cmax means the peak of the concentration-time curve. For orientation: Tmax means the time at which the peak concentration occurs. Regarding `CCN(c1cc(-c2ccc([C@@H]3C[C@H]3N(CC3CCOCC3)C(=O)OC(C)(C)C)cc2)cc(C(=O)NCc2c(C)cc(C)[nH]c2=O)c1C)C1CCOCC1` (racemic), the result (in the data set with CWR22R [1]; in the data set on PC-3; in the data set with SUD4; in the data set with U-937; in data set [10]) was Active. Further, the figures for the concentration for half-maximal inhibition (IC50) in data set [2], in data set [6] and in data set [15] were 1.54 µM, > 3 µM and 16.6 µM, respectively. Also, the remaining at 1 h, 20 µM in [3] worked out at 84.3%. Besides, the Activity entry in data set [4] was “Non-Toxic”; in the data set on CWR22R [8] it was “Dose-Dependent Effect”; with CWR22R [11], 30.97%. In data set [5], this compound gave an apparent clearance CL/F of 8.33 mL/min/kg. For the same compound, the inhibition result (in data set [7]; in data set [12]; in the data set on CWR22R [14]) was “Active” each time. In addition, the peak concentration (Cmax) in data set [9] is 20600 ng/mL. Besides, the Tmax in data set [13] came to 2 h.

For the origin of these results see ChEMBL document CHEMBL5584353, “Design, Synthesis, and Biological Evaluation of Potent EZH2/LSD1 Dual Inhibitors for Prostate Cancer” (J Med Chem, 2024).
